Where no end group is shown, it is not given here.
Key:
[1] = test system: bladder afferents of CVH mice; experiment: Ex-vivo afferent recordings from bladder pelvic afferents during ramp distension; type: in vivo, C57/BL6 mice; conditions: vs vehicle
Description: (§1) Male C57 BL/6 mice were used in all experiments. Colitis was induced by administration of TNBS as described previously (Brierley et al., (2011) J. Physiol, 15: 3575-3593, incorporated herein by reference in its entirety). Briefly, 13-week-old mice were administered an intra-colonic enema of 0.1 mL TNBS (130 μg/mL in 30% EtOH) via a polyethylene catheter inserted 3 cm from the anus of isoflurane anaesthetized mice. Mice were then individually housed and observed daily for changes in body weight, physical appearance and behavior. Histological examination of mucosal architecture, cellular infiltrate, crypt abscesses, and goblet cell depletion confirmed TNBS-induced significant damage by day 3-post treatment, largely recovered by day 7 and fully recovered at the day 28-time point (Brierley et al., (2008) Gastroenterology, 134: 2059-69, incorporated herein by reference). High-threshold nociceptors from mice at the 28 day time point display significant mechanical hypersensitivity, lower mechanical activation thresholds and display hyperalgesia and allodynia. As such, they are therefore termed ‘chronic visceral hypersensitivity’ (CVH) mice.
Pelvic bladder afferents are classified by their ability to respond to urinary bladder ramp distension. During bladder distension there is an increase in intravesical pressure and a corresponding increase in the afferent neuron activity. The mechanosensitivity of these afferents was tested in bladder preparations from healthy and CVH mice as well as CVH mice that received either a 2 week treatment of once daily oral gavage of vehicle or of linaclotide (3 μg/kg/day) by ramp distension to a final intravesical pressure of 30 mmHg.
Recordings were made from healthy and CVH mice, which had been chronically administered either vehicle or linaclotide (3 μg/kg/day) for a total duration to 2 weeks, and which were euthanized via CO2 inhalation and cervical dislocation. The animal was cut in two at the level of L2, removing vascular connections via the aorta and vena cava, yet ensuring the kidneys and ureters remained intact. […]

[2] = test system: bladder afferents and detrusor smooth muscle of CVH mice; experiment: Exogenous chemical stimulation of bladder afferents and bladder muscle (carbachol, αβMe-ATP, capsaicin); type: in vivo, C57/BL6 mice; conditions: vs vehicle
Description: as §1
The chemosensitivity of bladder afferents was also tested following isolation of pelvic afferents and catheterisation of the bladder described above. Following an equilibration period, when bladder afferent responses to ramp distension are stable, the bladder was distended to a physiological pressure of 6 mmHg above baseline. At this point, the saline perfusion is stopped but the outflow tap remains closed as to maintain the volume in the bladder. The bladder is maintained in this state to accommodate the increase in volume for 45 minutes whilst the baseline intravesical pressure and afferent firing stabilize.
Following the equilibration period, the bath perfusion is briefly turned off and a bolus dose of agonist is applied. Carbachol (1 μM), αβMe-ATP (30 μM), and capsaicin (10 μM) were applied in series with a 1 hr washout period between each dose.
Chemosensitive responses were measured as the number of action potentials crossing a pre-set threshold at a given time following agonist administration. The intravesical pressure was determined as the change from baseline pressure at a given time following agonist administration.
Data are expressed as mean with the SEM, and n is the number of animals. Data were analyzed using unpaired t-test to determine significance when comparing single points or a two-way analysis of variance (ANOVA) when comparing between experimental groups throughout a ramp distension or exogenous agonist protocol. Differences were considered significant at P<0.05. […] Muscle compliance is calculated by plotting intravesical pressure against intravesical volume, which is in turn determined from the time taken to distend to a particular pressure.
Whole nerve multifiber afferent nerve activity was quantified using the spike 2 software, which counted the number of action potentials crossing a pre-set threshold. Data are expressed as mean±SEM. n indicates the number of individual animals. Data were analyzed using Prism 5 software (GraphPad Software, San Diego, Calif., USA) where appropriate, un-paired t-tests were used, or two-way analysis of variance (ANOVA) followed by posthoc tests. Differences were considered significant at a level of *P<0.05, **P<0.01 and ***P<0.001.

[3] = test system: retrogradely traced bladder thoracolumbar (TL) DRG neurons; experiment: Patch clamp recordings from retrogradely traced bladder DRG neurons; type: in vivo, C57/BL6 mice; conditions: TL DRG neurons from CVH mice, once daily oral gavage for 2 weeks, vs vehicle
Description: Laparotomy was performed on anaesthetized (2-3% isofluorane/0.3 L/min O2) mice. […]; ThermoFisher product nr. C22842 (former LifeTechnologies)) was used for subserosal injection (2-3 ul per injection) in descending colon or dorsal and lateral bladder using a 30G Hamilton needle. Incision was closed with Prolene 6/0 suture (Johnson&Johnson product nr. 8636G). All mice were given 100 ul of buprenorphine (1:12) and Baytril (1:20) for post-operative care and left for 4 days before humanely killed for DRG cell culture.
Recordings were made from healthy and CVH mice. CVH mice received chronic administration of either vehicle or linaclotide (3 μg/kg/day) for a total duration of 2 weeks. Mice were euthanized via CO2 inhalation and DRGs from thoracolumbar (T10-L1) and lumbosacral (L6-S1) regions removed and digested with 3 mg mL−1 collagenase II (Gibco) and 4 mg mL−1 dispase (Gibco) for 30 min at 37° C., followed by 3 mg mL−1 collagenase II only for 10 min at 37° C. […]
Recordings were made similarly to those we have described previously (Brierley et al., 2011, ibid). […] Signals were amplified by using an Axopatch 200A amplifier, digitized with a Digidata 1322A and recorded using pCLAMP 9 software (Molecular Devices, Sunnyvale, Calif., USA). […] In current clamp studies a series of depolarizing pulses (500 ms, 10 pA step) were applied from a holding potential ([…]) and the rheobase (or amount of current (pA) required for action potential generation) determined. The number of action potentials at rheobase and 2× rheobase was also determined and the resting membrane potential was noted. […]
Action potentials were recorded in current clamp mode and the rheobase, or the amount of injected current (pA) required to elicit an action potential determined. The numbers of action potentials at rheobase and 2× rheobase were also recorded as well as noting the resting membrane potential. Data were analyzed using Prism 5 software (GraphPad Software, San Diego, Calif., USA) where appropriate, un-paired t-tests or one-way analysis of variance (ANOVA) followed by posthoc tests. […]

[4] = human volunteers; cited from earlier work

CCEYCCNPACTGCY (cysteine pairing not given here) [linaclotide]
afferent nerve activity over the time course of ramp distension ([1]; once daily oral gavage 3 μg/kg/day for 2 weeks, FIG. 2A, P≤0.001): significant decrease
peak afferent response to distension ([1]; once daily oral gavage 3 μg/kg/day for 2 weeks, FIG. 2B, P≤0.05): significant decrease
bladder compliance ([1]; once daily oral gavage for 2 weeks, FIG. 2C): no change
bladder afferent response to capsaicin ([2]; capsaicin 10 μM, once daily oral gavage for 2 weeks, p≤0.01): significantly reduced
bladder contraction response to carbachol ([2]; carbachol 1 μM, once daily dosing for 2 weeks): significantly reduced
bladder afferent response to carbachol ([2]; carbachol 1 μM, once daily oral gavage for 2 weeks, p≤0.001): significantly reduced
bladder contraction response to αβMe-ATP ([2]; αβMe-ATP 30 μM, once daily dosing for 2 weeks): significantly reduced
bladder afferent response to αβMe-ATP ([2]; αβMe-ATP 30 μM, once daily oral gavage for 2 weeks, p≤0.001): significantly reduced
resting membrane potential [3]: no effect
number of action potentials at 2× rheobase ([3]; p=0.02): significantly decreases
rheobase ([3]; p=0.02): significantly increases
oral dose found in feces [4]: about 5%

— patent publication US20220202725A1, “Modified or Targeted Release Formulations of Linaclotide” (Ironwood Pharmaceuticals, Inc., priority 2015, published 2022)
